This assay relates to multi-drug resistant Pneumococcus. As to the kind of experiment: Agar Dilution Test (NCCLS), MHK. The assay is classed as cell-based, Pneumococcus pneumoniae. Particulars: against multi-drug resistant Pneumococcus. The source says:
In particular, the active compounds of the invention show antimicrobial, e.g. antibacterial, activity against aerobic and anaerobic growing bacteria, e.g. gram negative and gram positive bacteria such as Enterobacter, e.g. Enterobacter cloacae; Enterococcus, e.g. Enterococcus faecalis, Enterococcus faecium; Moraxella, e.g. Moraxella catarrhalis; Haemophilus, e.g. Haemophilus influenza; Klebsiella, e.g. Klebsiella edwardsii, Klebsiella pneumoniae; Streptococcus, e.g. Streptococcus pyogenes; Staphylococcus, e.g. Staphylococcus aureus MSSA (methicillin sensitive strains); Staphylococcus aureus MRSA (methicillin resistant strains); Escherichia, e.g. Escherichia coli; Proteus, e.g. Proteus mirabilis, Salmonella, e.g. Salmonella typhimurium, Serratia, e.g. Serratia marcescens, Pseudomonas, e.g. Pseudomonas aeruginosa; Pneumococci, e.g. Pneumococcus pneumoniae (penicillin sensitive and mult-drug resistant strains); in vitro in the Agar DilutionTest for bacteria according to National Commitee for Clinical Laboratory Standards (NCCLS) 1993,
Document-M7-A3 Vol.13, No. 25: “Methods for dilution Antimicrobial Susceptibility Tests for Bacteria that Grow Aerobically-Third Edition, Approved Standard”; and
Document M11-A3 for anaerobic bacteria […]

In turn, “7-(((5-amino-1,2,4-thiadiazol-3-yl)-(Z)-(fluoromethoxyimino)acetyl)amino)-3-(imino-1-piperazinyhmethyl)medtylhydrazono)methyl-3-cephem4-carboxylic acid [Example 1]” gave an MHK of 0.4 µg/mL.

The values are drawn from patent US6693095B2, “Antibacterial substituted 7-acylamino-3-(methylhydrazono) methyl-cephalosporins and intermediates” (priority 1997, dated 2004).
